From BigSolDB 2.1

C[C@@H]1O[C@@H](O[C@H]2[C@H](Oc3cc(O)c4c(c3)O[C@H](c3ccc(O)cc3)CC4=O)O[C@H](CO)[C@@H](O)[C@@H]2O)[C@H](O)[C@H](O)[C@H]1O
solubility (mole fraction)
Settings	283.15 K	288.15 K	293.15 K	298.15 K	303.15 K	308.15 K	313.15 K	318.15 K
in ethanol	2.26e-05	2.57e-05	3.45e-05	4.05e-05	5.17e-05	6.25e-05	7.96e-05	0.000102
in water	6.21e-07	7.14e-07	9.76e-07	2.87e-06	6.15e-06	1.1e-05	1.55e-05	2.32e-05
